Assay results published in ChEMBL document CHEMBL1123971, “Synthesis, platelet aggregation inhibitory activity, and in vivo antithrombotic activity of new 1,4-dihydropyridines” (J Med Chem, 1988).
Where “and” joins values, the source holds several entries; their conditions need not be identical. Equal entries are not always repeated.

Tests used:
Type in all cases: functional
Mus musculus [1] = organism: Mus musculus; assay: Dose required to protect 50% of tested mice against experimental antithrombosis.
Mus musculus [2] = organism: Mus musculus; assay: Effective dose of the compound required to protect […] tested mice against experimental antithrombosis
Oryctolagus cuniculus [3] = organism: Oryctolagus cuniculus; assay: Effect on 35 mM K+-induced contraction on rabbit aorta at a dose of 10e-8 mol/L
Oryctolagus cuniculus [4] = organism: Oryctolagus cuniculus; assay: Effect on 35 mM K+-induced contraction on rabbit aorta at a dose of 10e-9 mol/L
Oryctolagus cuniculus [5] = organism: Oryctolagus cuniculus; assay: Effect on 35 mM K+-induced contraction on rabbit aorta at a dose of 3*10e-8 mol/L
Oryctolagus cuniculus [6] = organism: Oryctolagus cuniculus; assay: Effect on 35 mM K+-induced contraction on rabbit aorta at a dose of 3*10e-9 mol/L
Oryctolagus cuniculus [7] = organism: Oryctolagus cuniculus; assay: Effect on 35 mM K+-induced contraction on rabbit aorta at a dose of 10e-7 mol/L
Cavia porcellus [8] = organism: Cavia porcellus; assay: Effect on guinea pig artia (beats/min), at the a dose of 10e-6 M
Cavia porcellus [9] = organism: Cavia porcellus; assay: Effect on guinea pig artia (beats/min), at the a dose of 10e-7 M
Cavia porcellus [10] = organism: Cavia porcellus; assay: Effect on guinea pig artia (beats/min), at the a dose of 10e-9 M
Cavia porcellus [11] = organism: Cavia porcellus; assay: Effect on guinea pig artia (beats/min), at the a dose of 10e-8 M
Cavia porcellus [12] = organism: Cavia porcellus; assay: Effect on guinea pig artia (beats/min), at the a dose of 0 M

Structure (SMILES): CCCCC1C(C(=O)OCCN2C(=O)c3ccccc3S2(=O)=O)=C(C)N=C(C)/C1=C(/O)OC (stereo not given)
- ED50 (Mus musculus [1]): 78.4 µmol/kg and 37.3 mg/kg

Structure (SMILES): CO/C(O)=C1\C(C)=NC(C)=C(C(=O)OCN2C(=O)c3ccccc3S2(=O)=O)C1C (stereo not given)
- ED50 (Mus musculus [1]): > 220 µmol/kg and > 100 mg/kg

Structure (SMILES): CO/C(O)=C1\C(C)=NC(C)=C(C(=O)OCCN2C(=O)c3ccccc3S2(=O)=O)C1C (stereo not given)
- ED50 (Mus musculus [1]): 138 µmol/kg and 59.9 mg/kg

Structure (SMILES): CC1=NC(C)=C(C(=O)OCCNC(=O)c2ccccc2O)C(C)/C1=C(\O)OCCN1C(=O)c2ccccc2S1(=O)=O (stereo not given)
- ED50 (Mus musculus [1]): 51.4 µmol/kg and 30 mg/kg

Structure (SMILES): CCO/C(O)=C1\C(C)=NC(C)=C(C(=O)OCN2C(=O)c3ccccc3S2(=O)=O)C1C (stereo not given)
- ED50 (Mus musculus [1]): 134 µmol/kg and 58.3 mg/kg

Structure (SMILES): CC(=O)Oc1ccccc1C(=O)O [ASPIRIN]
- ED30 (Mus musculus [2]): 166.66 µM/kg
- ED30 (Mus musculus [2]; Mus musculus, read-out: ED30): 30 mg/kg

Structure (SMILES): OCCN(CCO)c1nc(N2CCCCC2)c2nc(N(CCO)CCO)nc(N3CCCCC3)c2n1 [DIPYRIDAMOLE]
- ED50 (Mus musculus [1]): 143 µmol/kg and 72 mg/kg

Structure (SMILES): COC(=O)C1=C(C)NC(C)=C(C(=O)OC)C1c1ccccc1[N+](=O)[O-] [NIFEDIPINE]
- Inhibition (Oryctolagus cuniculus [3]): 73.66%
- ED50 (Mus musculus [1]): 6.93 µmol/kg and 2.4 mg/kg
- Inhibition (Oryctolagus cuniculus [4]): 18.28%
- Inhibition (Oryctolagus cuniculus [5]): 88.35%
- Inhibition (Oryctolagus cuniculus [6]): 41.73%
- Inhibition (Oryctolagus cuniculus [7]): 100%

Structure (SMILES): CCOC(=O)C1=C(C)NC(C)=C(C(=O)OC)C1c1cccc([N+](=O)[O-])c1 (stereo not given) [NITRENDIPINE]
- Beats/min (Cavia porcellus [8]): 153
- Control (Cavia porcellus [8]): 81%
- Beats/min (Cavia porcellus [9]): 179
- Control (Cavia porcellus [9]): 94%
- Beats/min (Cavia porcellus [10]): 190
- Control (Cavia porcellus [10]): 100%
- Beats/min (Cavia porcellus [11]): 185
- Control (Cavia porcellus [11]): 97.5%
- Beats/min (Cavia porcellus [12]): 190
- Control (Cavia porcellus [12]): 100%

Structure (SMILES): Clc1ccccc1CN1CCc2sccc2C1 [TICLOPIDINE]
- ED50 (Mus musculus [1]): 152 µmol/kg and 40 mg/kg
